Patent US20230312550A1, “N-(2-(4-CYANOTHIAZOLIDIN-3-YL)-2-OXOETHYL)-QUINOLINE-4-CARBOXAMIDES” (AstraZeneca AB, priority 2020, published 2023)
≈ marks a conversion by molar mass, not a printed value.

What was measured:
[1] = target: human Fibroblast activation protein alpha (hFAP) (Homo sapiens (Human), UniProt Q12884); experiment: hFAP inhibition assay (tight binders); format: biochemical; details: Ala-Pro-AMC 20 μM, n = 1 or geometric mean n = 2-6; also: hFAP 2.4 pM
Description: The plates were read on a PHERAstar® reader with excitation 340 nm and emission 460 nm. Data were analyzed in Genedata Screener®. IC50 values were determined by plotting % inhibition versus log compound concentration and using a one site dose response model.

[2] = target: hFAP (M39-A757) (Homo sapiens (Human), UniProt Q12884); experiment: hFAP binding assay (surface plasmon resonance); details: SPR, 20° C.; for hFAP Binding assay k(off) / hFAP Binding assay k(on): single cycle kinetics; for Kd: n = 1 or geometric mean n = 2-4
hFAP (M39-A757), sequence (Q12884 39-757): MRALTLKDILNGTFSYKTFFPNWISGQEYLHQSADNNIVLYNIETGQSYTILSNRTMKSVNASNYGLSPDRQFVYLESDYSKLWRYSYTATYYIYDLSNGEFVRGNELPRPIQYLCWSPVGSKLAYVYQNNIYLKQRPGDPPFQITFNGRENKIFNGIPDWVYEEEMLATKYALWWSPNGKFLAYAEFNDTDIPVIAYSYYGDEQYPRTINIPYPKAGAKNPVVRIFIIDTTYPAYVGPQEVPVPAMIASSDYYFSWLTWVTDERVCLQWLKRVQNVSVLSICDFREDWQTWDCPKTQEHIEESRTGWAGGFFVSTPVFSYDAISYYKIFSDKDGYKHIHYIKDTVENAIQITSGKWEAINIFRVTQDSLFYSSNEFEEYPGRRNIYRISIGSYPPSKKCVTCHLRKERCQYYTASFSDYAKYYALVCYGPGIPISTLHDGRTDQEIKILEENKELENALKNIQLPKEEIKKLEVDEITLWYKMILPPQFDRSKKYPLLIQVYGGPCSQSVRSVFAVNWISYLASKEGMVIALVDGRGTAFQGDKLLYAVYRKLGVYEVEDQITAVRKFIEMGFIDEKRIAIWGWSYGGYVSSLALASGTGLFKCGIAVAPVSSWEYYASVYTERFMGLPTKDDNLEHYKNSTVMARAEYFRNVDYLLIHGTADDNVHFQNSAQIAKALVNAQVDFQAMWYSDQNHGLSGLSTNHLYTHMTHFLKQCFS

[3] = target: Prolyl endopeptidase, Prolyl Oligopeptidase (hPREP) (Homo sapiens (Human), UniProt P48147); experiment: hPrep inhibition assay; format: biochemical; details: hPREP 0.6 nM, Z-Gly-Pro-amino-methylcoumarin 50 μM; read-out: PREP IC50
Prolyl endopeptidase, Prolyl Oligopeptidase (hPREP), sequence (P48147 whole entry): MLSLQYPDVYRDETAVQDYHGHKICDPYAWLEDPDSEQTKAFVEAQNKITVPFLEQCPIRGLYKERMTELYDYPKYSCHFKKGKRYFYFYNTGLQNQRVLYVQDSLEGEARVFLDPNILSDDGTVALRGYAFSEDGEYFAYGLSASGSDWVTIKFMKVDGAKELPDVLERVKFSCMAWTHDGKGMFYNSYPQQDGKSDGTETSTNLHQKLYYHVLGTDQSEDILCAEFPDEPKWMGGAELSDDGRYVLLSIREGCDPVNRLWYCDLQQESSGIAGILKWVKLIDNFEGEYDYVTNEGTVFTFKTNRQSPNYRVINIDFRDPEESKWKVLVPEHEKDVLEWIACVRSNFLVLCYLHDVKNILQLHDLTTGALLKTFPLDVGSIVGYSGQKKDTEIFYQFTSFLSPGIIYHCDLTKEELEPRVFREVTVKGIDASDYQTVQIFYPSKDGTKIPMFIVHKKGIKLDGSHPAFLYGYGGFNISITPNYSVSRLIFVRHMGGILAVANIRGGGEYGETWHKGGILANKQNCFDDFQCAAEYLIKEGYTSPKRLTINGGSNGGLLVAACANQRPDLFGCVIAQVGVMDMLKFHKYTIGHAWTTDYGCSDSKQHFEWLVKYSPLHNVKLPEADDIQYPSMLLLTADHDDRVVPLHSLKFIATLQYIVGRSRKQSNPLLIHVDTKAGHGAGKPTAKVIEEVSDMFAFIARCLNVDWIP
Description: Compounds were tested in a biochemical inhibition assay using Prolyl endopeptidase, Prolyl Oligopeptidase (hPREP) enzyme at 0.6 nM FAC (R&D Systems, 4308-SE) and the substrate Z-Gly-Pro-amino-methylcoumarin (Bachem, I-1145) at 50 μM FAC. 384 Low volume black plates (Greiner #784076) were used. […] Plates were incubated for 15 min at rt in dark. 4 μL, 100 μM substrate solution (25 mM Tris HCl, 250 mM NaCl, 0.01% Triton X-100, 5 mM Glutathione, pH 7.5) was added to each well. Plates were centrifuged at 1000 rpm and incubated for 20 min at rt in dark. The plates were read on a PHERAstar® reader with excitation 340 nm and emission 460 nm. Data were analyzed in Genedata Screener®. IC50 values were determined by plotting % inhibition versus log compound concentration and using a one site dose response model.

[4] = Kinetic solubility; details: kinetic from dmso stock
Description: Kinetic solubility was measured as described in Comput Aided Mol Des 2015, 29, 795.

[5] = Metabolic stability in rat hepatocytes (rHep); details: n = 1 or geometric mean of n = 2-3
[6] = Metabolic stability in human liver microsomes (HLM); details: human
Description: Metabolic stability in HLM was measured as described in J Comput Aided Mol Des 2015, 29, 795.

[7] = Solubility, kinetic solubility, n = 1 or average of n = 2-3
[8] = HLM CLint, n = 1 or average of n = 2-3

human Fibroblast activation protein alpha (hFAP), sequence (Q12884 38-760): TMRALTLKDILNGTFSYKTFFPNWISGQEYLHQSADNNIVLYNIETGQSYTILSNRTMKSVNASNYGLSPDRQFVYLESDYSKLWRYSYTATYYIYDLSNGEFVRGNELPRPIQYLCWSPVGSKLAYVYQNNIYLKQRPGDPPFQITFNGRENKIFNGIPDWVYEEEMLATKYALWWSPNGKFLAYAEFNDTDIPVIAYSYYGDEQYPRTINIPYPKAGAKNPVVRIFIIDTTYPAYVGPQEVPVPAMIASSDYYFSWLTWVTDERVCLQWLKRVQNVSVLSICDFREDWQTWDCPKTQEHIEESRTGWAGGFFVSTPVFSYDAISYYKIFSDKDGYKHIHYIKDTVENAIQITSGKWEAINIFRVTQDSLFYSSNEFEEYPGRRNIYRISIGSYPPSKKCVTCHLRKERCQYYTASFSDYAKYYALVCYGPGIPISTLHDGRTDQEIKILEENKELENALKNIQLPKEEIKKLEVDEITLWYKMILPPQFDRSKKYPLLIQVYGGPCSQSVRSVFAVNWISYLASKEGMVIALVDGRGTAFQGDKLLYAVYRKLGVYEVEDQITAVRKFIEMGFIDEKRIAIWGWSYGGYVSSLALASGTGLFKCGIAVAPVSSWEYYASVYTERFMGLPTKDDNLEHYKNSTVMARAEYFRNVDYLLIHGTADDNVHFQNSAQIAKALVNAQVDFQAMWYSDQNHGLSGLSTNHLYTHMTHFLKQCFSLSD

SMILES | IC50 [1] [nM] | hFAP Binding assay k(off) [2] [s⁻¹] | hFAP Binding assay k(on) [2] [M⁻¹ s⁻¹] | Kd [2] [nM] | IC50 [3] [nM] | solubility [4] [µM] | rHep CLint [5] [μL/min/1E6] | microsomal CLint [6] [µL/min/mg] | solubility [4, 7] [µM] | microsomal CLint [6, 8] [µL/min/mg]
N#C[C@@H]1CSCN1C(=O)CNC(=O)c1ccnc2ccc(N3CC4(CCCC4(F)F)C3)cc12 [Example 141, (R)—N-(2-(4-Cyanothiazolidin-3-yl)-2-oxoethyl)-6-(5,5-difluoro-2-azaspiro[3.4]octan-2-yl)quinoline-4-carboxamide] | 0.059 | 0.000078 | 1400000 | 0.062 | 460 | 140 (≈ 66 µg/mL) | 11 | 54 | – | –
CC1(C)CN(c2ccc3nccc(C(=O)NCC(=O)N4CSC[C@H]4C#N)c3c2)CCC1(F)F [Example 38, (R)—N-(2-(4-Cyanothiazolidin-3-yl)-2-oxoethyl)-6-(4,4-difluoro-3,3-dimethylpiperidin-1-yl)quinoline-4-carboxamide] | 0.1 | 0.000078 | 520000 | 0.11 | 480 | – | >300 | – | 33 (≈ 15.6 µg/mL) | > 300
N#C[C@@H]1CSCN1C(=O)CNC(=O)c1ccnc2ccc(N3CC(CCF)C3)cc12 [Example 146, (R)—N-(2-(4-Cyanothiazolidin-3-yl)-2-oxoethyl)-6-(3-(2-fluoroethyl)-azetidin-1-yl)quinoline-4-carboxamide] | 0.15 | 0.00017 | 1400000 | 0.12 | 450 | – | 4.3 | – | 24 (≈ 10.3 µg/mL) | 11
N#C[C@@H]1CSCN1C(=O)CNC(=O)c1ccnc2ccc(N3CC4(CCCC4)C3)cc12 [Example 139, (R)—N-(2-(4-Cyanothiazolidin-3-yl)-2-oxoethyl)-6-(2-azaspiro[3.4]octan-2-yl)quinoline-4-carboxamide] | 0.32 | – | – | 0.015 | 1000 | 50 (≈ 21.8 µg/mL) | 13 | 72 | – | –
N#C[C@@H]1CSCN1C(=O)CNC(=O)c1ccnc2ccc(-n3ccc(-c4ccccc4)c3)cc12 [Example 218, (R)—N-(2-(4-Cyanothiazolidin-3-yl)-2-oxoethyl)-6-(3-phenyl-1H-pyrrol-1-yl)quinoline-4-carboxamide] | 0.068 | 0.00032 | 670000 | 0.48 | 390 | – | 18 | – | < 0.16 | 37
N#C[C@@H]1CSCN1C(=O)CNC(=O)c1ccnc2ccc(N3C[C@@H]4CCC[C@@H]43)cc12 (mixture of isomers) [Example 156, 6-((1RS,5RS)-6-Azabicyclo[3.2.0]heptan-6-yl)-N-(2-((R)-4-cyanothiazolidin-3-yl)-2-oxoethyl)quinoline-4-carboxamide] | 0.22 | 0.000066 | 1200000 | 0.056 | 310 | – | 120 | – | 100 | 140
N#C[C@@H]1CSCN1C(=O)CNC(=O)c1ccnc2ccc(N3CC4C(C3)C4(F)F)cc12 (stereo partly drawn) [Example 160, N-(2-((R)-4-Cyanothiazolidin-3-yl)-2-oxoethyl)-6-(6,6-difluoro-3-azabicyclo[3.1.0]hexan-3-yl)quinoline-4-carboxamide] | 0.05 | 0.000074 | 1100000 | 0.068 | 210 | – | 33 | – | 1.8 (≈ 0.798 µg/mL) | 45
C[C@@H]1CN(c2ccc3nccc(C(=O)NCC(=O)N4CSC[C@H]4C#N)c3c2)C[C@H](C)[C@]1(C)O [Example 193, N-(2-((R)-4-Cyanothiazolidin-3-yl)-2-oxoethyl)-6-((3R,4S,5S)-4-hydroxy-3,4,5-trimethylpiperidin-1-yl)quinoline-4-carboxamide] | 0.24 | 0.00012 | 740000 | 0.16 | 360 | – | 11 | – | 940 (≈ 440 µg/mL) | 53
N#C[C@@H]1CSCN1C(=O)CNC(=O)c1ccnc2ccc(-n3ncc4c3CCCC4)cc12 [Example 114, (R)—N-(2-(4-Cyanothiazolidin-3-yl)-2-oxoethyl)-6-(4,5,6,7-tetrahydro-1H-indazol-1-yl)quinoline-4-carboxamide] | 0.072 | – | – | 0.062 | 230 | – | 36 | – | 4.5 (≈ 2.01 µg/mL) | 170
CO[C@@H]1CCN(c2ccc3nccc(C(=O)NCC(=O)N4CSC[C@H]4C#N)c3c2)C1 [Example 161, N-(2-((R)-4-Cyanothiazolidin-3-yl)-2-oxoethyl)-6-((R)-3-methoxy-pyrrolidin-1-yl)quinoline-4-carboxamide] | 0.052 | 0.00028 | 14000000 | 0.022 | 470 | – | 8.5 | – | 84 (≈ 35.7 µg/mL) | 6.7
N#C[C@@H]1CSCN1C(=O)CNC(=O)c1ccnc2ccc(N3CCC[C@H]3C3CC3)cc12 (single isomer, unassigned) [Example 200, N-(2-((R)-4-Cyanothiazolidin-3-yl)-2-oxoethyl)-6-((R*)-2-cyclopropyl-pyrrolidin-1-yl)quinoline-4-carboxamide] | 0.24 | 0.00023 | 2500000 | 0.09 | 130 | – | >300 | – | 81 (≈ 35.3 µg/mL) | > 300
N#C[C@@H]1CSCN1C(=O)CNC(=O)c1ccnc2ccc(N3CC4(CC4)C3)cc12 [Example 164, (R)—N-(2-(4-Cyanothiazolidin-3-yl)-2-oxoethyl)-6-(5-azaspiro[2.3]hexan-5-yl)quinoline-4-carboxamide] | 0.081 | 0.000036 | 1400000 | 0.027 | 240 | 64 (≈ 26.1 µg/mL) | 8.1 | 22 | – | –
Cc1cc2nccc(C(=O)NCC(=O)N3CSC[C@H]3C#N)c2cc1N1CCOCC1 [Example 10, (R)—N-(2-(4-Cyanothiazolidin-3-yl)-2-oxoethyl)-7-methyl-6-morpholino-quinoline-4-carboxamide] | 0.054 | 0.000056 | 370000 | 0.15 | 940 | – | 41 | – | 270 (≈ 115 µg/mL) | 130
N#C[C@@H]1CSCN1C(=O)CNC(=O)c1ccnc2ccc(N3CC(OC(F)(F)F)C3)cc12 [Example 132, (R)—N-(2-(4-Cyanothiazolidin-3-yl)-2-oxoethyl)-6-(3-(trifluoromethoxy)-azetidin-1-yl)quinoline-4-carboxamide] | 0.41 | 0.00014 | 270000 | 0.52 | 3700 | – | 8.5 | – | 13 (≈ 6.05 µg/mL) | 38
